How the values were obtained:
[1] = tested on: human gastric cancer cell line MKN-74; assay: Inhibitory effect on cancer at a specific site (subcutaneous tumor) of mice with MKN-74 tumor (Example 2); format: in vivo; conditions: DEG 5 μM in combination with Szd 16 μL in 200 μL PBS, intratumoral; ultrasound 1 W/cm^2, 1 MHz, 50% duty cycle, 10 minutes, three times on alternate days
Procedure: Mice were inoculated subcutaneously with ca. 5×10^6 cells of human gastric cancer cell line MKN-74 and a PBS suspension (200 μL) composed of the ultrasound-sensitive substance (DEG; 5 μM) and the acoustic cavitation phenomenon-enhancing substance (Szd; 16 μL) was administered intratumorally, followed by irradiating the mice with ultrasound waves of 1 W/cm^2 and 1 MHZ under a condition of 50% duty cycle for 10 minutes using Sonitron 100. The ultrasound waves were irradiated three times on alternate days. The results of the cancer sizes are shown by arrow mark (↑) in FIG. 4.

[2] = tested on: human gastric cancer cell line MKN-74; assay: Ultrasonic treatment of SCID mice carrying subcutaneous MKN-74 cancer (Example 1); format: in vivo; conditions: DEG 5 μM + SONAZOID 16 μL in 300 μL saline, intratumoral; single treatment with low-intensity pulsed ultrasound 2 W/cm^2, 1 MHz, 50% duty cycle, 10 minutes; three weeks after treatment
Procedure: SCID mice as cancer-carrying animals were inoculated subcutaneously with human gastric cancer cell line MKN-74 which was in turn grown to a diameter of the cancer size of approximately 20 mm and then subjected to treatment by ultrasound waves. The ultrasonic treatment was carried out using the porphyrin derivative, [7,12-bis(1-(2-(2-hydroxyethoxy)ethoxy)ethyl)-3,8,13,17-tetramethylporphyrin-2,18-dipropionato]manganese (DEG), as the ultrasound-sensitive substance and an ultrasound contrast agent containing lipid stabilized perfluorobutane microbubbles in an aqueous solution (SONAZOID™) as the acoustic cavitation phenomenon-enhancing substance by irradiating the mice with low-intensity pulsed ultrasound waves of 2 W/cm^2 and 1 MHz under a condition of 50% duty cycle for 10 minutes. The ultrasonic treatment was performed by suspending 5 μM of the ultrasound sensitive substance and 16 μL of the acoustic cavitation phenomenon-enhancing substance in 300 μL of saline and irradiating the mice with the ultrasound waves immediately after intratumoral administration of the resulting suspension. The states of development of the cancer were observed immediately after ultrasonic treatment, one week and three weeks thereafter.

7,12-bis(1-(2-(2-hydroxyethoxy)ethoxy)ethyl)-3,8,13,17-tetra-methylporphyrin-2,18-dipropionato]manganese [DEG]
antitumor effect, one remaining case of three [1]: significant antitumor effect
antitumor effect, two cases out of three [1]: remarkable effects
state of development of the cancer (tumor size) [2]: dramatic regression of the cancer
